Reference: patent publication US10526322B2, “Inhibitors of kidney-type glutaminase, GLS-1” (CORNELL UNIVERSITY, priority 2014, dated 2020)

Assays:
[1] = tested on: glutamine metabolism in Dbl-MEFs; experiment: Metabolic tracing, mass isotopologue distribution with [U-13C]glutamine or [U-13C]glucose; format: cell-based, mouse
Description: Methods for mass isotopologue distribution analyses using [U-^13C]glutamine or [U-^13C]glucose (Cambridge Isotope Laboratories) were adapted from Cheng et al., “Pyruvate Carboxylase Is Required for Glutamine-Independent Growth of Tumor Cells,” Proc. Natl. Acad. Sci. 108:8674-79 (2011), which is hereby incorporated by reference in its entirety. Briefly, induced (16 hours in complete media without Dox) or non-induced cells (complete media with 1 μg/mL Dox) were plated into 100 mm^2 dishes at a density such that the cells were approximately 60% confluent when adhered, at which point the cells were washed with PBS and grown to 80% confluence in DMEM supplemented with 1% Tet-approved FBS and 8 μM 968/27 for drug treated samples, or 0.8% DMSO for control samples, with or without 1 μg/mL Dox (i.e. overnight). When 80% confluent, cells were then washed with PBS and ^13C-labeling media containing the appropriate drug, DMSO, and Dox concentrations. Media was prepared from glucose- and glutamine-free DMEM powder (Sigma) and supplemented with 1% Tet-approved FBS, 2 mM L[U-^13C]glutamine and 15 mM unlabeled glucose or 15 mM D[U-^13C]glucose and 2 mM unlabeled glutamine (FIGS. 2F-G), together with 1 μg/mL Dox for non-induced samples. For samples containing [U-^13C]glutamine, cells were incubated for 1 hour before extracting metabolites, whereas samples containing [U-^13C]glucose were incubated for 8 hours. Metabolites were extracted by first washing cells twice with ice cold normal saline (0.9% w/v NaCl), followed by addition of 0.5 mL of a 1:1 methanol:water mixture (−20° C.). An internal standard (50 nmol of 2-oxobutyrate) was added and samples were subjected to 3 freeze-thaw cycles, after which macromolecules were separated by centrifugation. The supernatant was evaporated completely and remaining metabolites silylated in 100 μL of a trimethylsilyl donor (Tri-Sil, Thermo) for 30 minutes at 42° C. Metabolites were subjected to GC-MS analysis using an Agilent 6970 gas chromatograph networked to an Agilent 5973 mass selective detector. Metabolites were identified and isotope enrichment calculated as described by Cheng et al., “Pyruvate Carboxylase Is Required for Glutamine-Independent Growth of Tumor Cells,” Proc. Natl. Acad. Sci. 108:8674-79 (2011), which is hereby incorporated by reference in its entirety.

Dbl-inducible MEFs = experiment: Foci forming assay; format: cell-based, mouse; conditions: MEFs expressing Dbl, 10 μM 968
Source text: Inducible oncogenic Dbl cell lines were created using the TET-OFF system in mouse embryonic fibroblasts (MEFs) following the manufacturer's instructions (Clontech). Briefly, PCR products for onco-Dbl-containing NotI and XbaI restriction endonuclease sites were cloned in the per2.1 vector using the TOPO-TA cloning kit (Invitrogen) and subsequently subcloned into the p-TREHA vector (Clontech). The pTRE-HA-onco-Dbl was then co-transfected with pMET-Puro in a 20:1 ratio into parental MEFs (Clontech), which contained the transcriptional transactivator (tTa), with Lipofectamine (Invitrogen). Cells were placed under puromycin selection at 48 hours post transfection, and colonies were selected after 2-4 weeks for doxycycline-dependent expression of HA-onco-Dbl using HA.11 antibody (Covance). Cells were maintained in DMEM supplemented with 10% (v/v) Tet system-approved FBS (clontech) and 100 μg/mL G418 (Gibco). To suppress Dbl expression, 1 μg/mL doxycycline was added to the medium every 2 days. Cells were induced by re-plating in doxycycline-free medium where residual doxycycline was removed by replacing the medium 3 hours after plating. Immunofluorescence was conducted on cells grown 48-72 hours on glass cover slips and fixed with 3.7% formaldehyde. […] Digital images were collected using a Zeiss fluorescence microscope and AxioVision 3.1 software. […]

[2] = 8 μM, non-induced and induced cells

SMILES: CN(C)c1ccc(C2Nc3ccc4ccccc4c3C3=C2C(=O)CC(C)(C)C3)cc1Br (centres unmarked) [Compound 968]
- glucose labeling of citrate isotopologues (M+2) ([1]; 8 μM overnight, 8 hour [U-13C]glucose): inhibit
- glutamate pool sizes [1, 2]: modest decrease
- pool sizes of fumarate, malate, and citrate [1, 2]: no effect
- glutamine-derived 13C isotopic enrichment within TCA cycle intermediates ([1]; Dbl-expressing cells, 8 μM overnight, 1 hour [U-13C]glutamine): significant reductions
- Dbl-induced focus formation (Dbl-inducible MEFs): blocked
